# Test results published in patent US10195201B2, “Heteroaryl-pyrimidinone compounds as PDE2 inhibitors” (Merck Sharp & Dohme Corp., priority 2015, dated 2019).
# Like-named read-outs stand apart in the source and are kept apart here.
# Tests used:
# Rhesus PDE2A3 = Rhesus PDE2A3 (Macaca mulatta, UniProt B3VTJ2); assay: PDE2 fluorescence polarization (IMAP FP) inhibition assay, rhesus enzyme; format: biochemical, rhesus macaque
# Protocol: (§1) The activity of the compounds in accordance with the present invention as PDE2 inhibitors may be readily determined using a fluorescence polarization (FP) methodology (Huang, W., et al., J. Biomol Screen, 2002, 7: 215).
# In a typical experiment the PDE2 inhibitory activity of the compounds of the present invention was determined in accordance with the following experimental method. Rhesus PDE2A3 was amplified from rhesus macaque brain cDNA (Biochain Institute, Hayward, Calif.) using primers based on human PDE2A sequence (accession NM_002599.3) where the forward primer containing a Kozak consensus was 5′-[…]-3′ and the reverse primer was 5′-[…]-3′. Amplification with Easy-A High-Fidelity PCR cloning enzyme (Stratagene, La Jolla, Calif.) was 95° C. for 2 minutes followed by thirty three cycles of 95° C. for 40 seconds, 52° C. for 30 seconds, and 72° C. for 2 minutes 48 seconds. Final extension was 72° C. for 7 minutes. The PCR product was TA cloned into pcDNA3.3-TOPO (Invitrogen, Carlsbad, Calif.) according to standard protocol. A consensus sequence was developed from multiple clones and then deposited into GenBank (EU812167). AD293 cells (Stratagene, La Jolla, Calif.) with 70-80% confluency were transiently transfected with rhesus PDE2A3/pcDNA3.3-TOPO using Lipofectamine 2000 according to manufacturer specifications (Invitrogen, Carlsbad, Calif.). Cells were harvested 48 hours post-transfection and lysed by sonication (setting 3, 10×5 sec pulses) in a buffer containing 20 mM HEPES pH 7.4, 1 mM EDTA and Complete Protease Inhibitor Cocktail Tablets (Roche, Indianapolis, Ind.). Lysate was collected by centrifugation at 75,000×g for 20 minutes at 4° C. and supernatant utilized for evaluation of PDE2 activity. The fluorescence polarization assay for cyclic nucleotide phosphodiesterases was performed using an IMAP® FP kit supplied by Molecular Devices, Sunnyvale, Calif. (product # R8139). […] Assays were performed at room temperature in 384-well microtiter plates with an incubation volume of 20.2 μL. Solutions of test compounds were prepared in DMSO and serially diluted with DMSO to yield 8 μL of each of 10 solutions differing by 3-fold in concentration, at 32 serial dilutions per plate. […] 0% of inhibition is determined by using DMSO (1% final concentrations).
# A Labcyte Echo 555 (Labcyte, Sunnyvale, Calif.) is used to dispense 200 nL from each well of the titration plate to the 384 well assay plate. Ten microliters of a solution of enzyme (1/2000 final dilution from aliquots; sufficient to produce 20% substrate conversion) was added to the assay plate. Next 10 uL of a separate solution of the substrate FAM-labeled cAMP (50 nM final concentration product # R7506 from Molecular Devices) and the activator cGMP (1 uM final concentration), prepared in the assay buffer (10 mM Tris HCl, pH 7.2, 10 mM MgCl2, 0.05% NaN3 0.01% Tween-20, and 1 mM DTT) was added to the assay plate and shaken to mix. The reaction is allowed to proceed at room temperature for 60 minutes. A binding solution is then made from the kit components, comprised of 80% Solution A, 20% Solution B and binding reagent at a volume of 1/600 the total binding solution. The enzymatic reaction is stopped by addition of 60 μL of the binding solution to each well of the assay plates and the plates are sealed and shaken for 30 seconds. The plate was incubated at room temperature for at least one hour prior to determining the fluorescence polarization (FP). The parallel and perpendicular fluorescence of each well of the plate was measured using a Tecan Genios Pro plate reader (Tecan, Switzerland) or Perkin Elmer EnVision™ plate reader (Waltham, Mass.). Fluorescence polarization (mP) was calculated from the parallel (S) and perpendicular (P) fluorescence of each sample well and the analogous values for the median control well, containing only substrate (So and Po), using the following equation: Polarization (mP)=1000*(S/So−P/Po)/(S/So+P/Po).
# human PDE2A1 = human PDE2A1 (Homo sapiens (Human), UniProt O00408); assay: PDE2 fluorescence polarization (IMAP FP) inhibition assay, human enzyme; format: biochemical
# human PDE2A1, sequence (O00408 other isoform, or with tags, fused parts or gaps): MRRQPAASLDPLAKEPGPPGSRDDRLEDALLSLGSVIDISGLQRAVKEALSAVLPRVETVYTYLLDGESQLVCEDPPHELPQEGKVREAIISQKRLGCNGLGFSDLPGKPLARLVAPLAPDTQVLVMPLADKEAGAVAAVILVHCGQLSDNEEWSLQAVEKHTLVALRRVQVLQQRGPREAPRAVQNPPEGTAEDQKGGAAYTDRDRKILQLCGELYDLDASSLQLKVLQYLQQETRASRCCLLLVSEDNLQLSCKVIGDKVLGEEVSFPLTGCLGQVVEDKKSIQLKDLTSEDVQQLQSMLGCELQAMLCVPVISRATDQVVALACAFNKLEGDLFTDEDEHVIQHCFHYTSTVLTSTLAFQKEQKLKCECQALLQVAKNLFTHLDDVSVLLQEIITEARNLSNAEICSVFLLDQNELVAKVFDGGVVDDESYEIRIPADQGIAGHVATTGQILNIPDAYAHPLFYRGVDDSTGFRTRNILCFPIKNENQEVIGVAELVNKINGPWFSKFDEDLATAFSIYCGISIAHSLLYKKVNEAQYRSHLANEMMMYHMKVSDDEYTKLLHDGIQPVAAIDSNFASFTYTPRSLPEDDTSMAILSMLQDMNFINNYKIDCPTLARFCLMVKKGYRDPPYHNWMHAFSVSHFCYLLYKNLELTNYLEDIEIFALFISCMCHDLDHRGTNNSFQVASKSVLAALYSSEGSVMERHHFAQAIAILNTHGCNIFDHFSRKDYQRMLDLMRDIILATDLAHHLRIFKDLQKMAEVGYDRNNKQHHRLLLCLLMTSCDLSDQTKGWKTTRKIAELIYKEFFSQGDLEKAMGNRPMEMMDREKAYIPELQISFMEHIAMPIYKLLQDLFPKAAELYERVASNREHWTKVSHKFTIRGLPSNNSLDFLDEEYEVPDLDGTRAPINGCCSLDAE
# Protocol: as §1
# Selectivity for PDE2, as compared to other PDE families, was assessed using the IMAPR technology. Human PDE10A2 enzyme was prepared from cytosolic fractions of transiently transfected HEK cells. All other PDE's were GST Tag human enzyme expressed in insect cells and were obtained from BPS Bioscience (San Diego, Calif.): PDE1A (Cat#60010), human PDE2A1(Cat#60020), PDE3A (Cat#60030), PDE4A1A (Cat#60040), PDE5A1 (Cat#60050), PDE6C (Cat#60060), PDE7A (Cat#60070), PDE8A1 (Cat#60080), PDE9A2 (Cat#60090), PDE11A4 (Cat#60110).
# Assays for PDE 1 through 11 were performed in parallel at room temperature in 384-well microtiter plates with an incubation volume of 20.2 μL. Solutions of test compounds were prepared in DMSO and serially diluted with DMSO to yield 30 μL of each of ten solutions differing by 3-fold in concentration, at 32 serial dilutions per plate. […] A Labcyte POD 810 (Labcyte, Sunnyvale, Calif.) was used to dispense 200 nL from each well of the titration plate to make eleven copies of the assay plate for each titration, one copy for each PDE enzyme. A solution of each enzyme (dilution from aliquots, sufficient to produce 20% substrate conversion) and a separate solution of FAM-labeled cAMP or FAM-labeled cGMP from Molecular Devices (Sunnyvale, Calif., product # R7506 or cGMP#R7508), at a final concentration of 50 nM were made in the assay buffer (10 mM Tris HCl, pH 7.2, 10 mM MgCl2, 0.05% NaN3 0.01% Tween-20, and 1 mM DTT). Note that the substrate for PDE2 is 50 nM FAM cAMP containing 1000 nM of cGMP. The enzyme and the substrate were then added to the assay plates in two consecutive additions of 10 μL and then shaken to mix. The reaction was allowed to proceed at room temperature for 60 minutes. A binding solution was then made from the kit components, comprised of 80% Solution A, 20% Solution B and binding reagent at a volume of 1/600 the total binding solution. The enzymatic reaction was stopped by addition of 60 μL of the binding solution to each well of the assay plate. The plates were sealed and shaken for 10 seconds. The plates were incubated at room temperature for one hour, then the parallel and perpendicular fluorescence was measured using a Tecan Genios Pro plate reader (Tecan, Switzerland). The apparent inhibition constants for the compounds against all 11 PDE's was determined from the parallel and perpendicular fluorescent readings as described for PDE10 FP assay using the following apparent KM values for each enzyme and substrate combination: PDE1A (FAM cGMP) 70 nM, human PDE2A1 (FAM cAMP) 10,000 nM, PDE3A (FAM cAMP) 50 nM, PDE4A1A (FAM cAMP) 1500 nM, PDE5A1 (FAM cGMP) 400 nM, PDE6C (FAM cGMP) 700 nM, PDE7A (FAM cAMP) 150 nM, PDE8A1 (FAM cAMP) 50 nM, PDE9A2 (FAM cGMP) 60 nM, […] (FAM cAMP) 150 nM, PDE11A4 (FAM cAMP) 1000 nM. The intrinsic PDE2 inhibitory activity of a compound which may be used in accordance with the present invention may be determined by these assays. […]
# [1] = LabA, read-out: rhPDE2 Ki (nM) LabA
# [2] = LabB, read-out: rhPDE2 Ki (nM) LabB
# [3] = LabA, read-out: hPDE2 Ki (nM) LabA
# [4] = LabB, read-out: hPDE2 Ki (nM) LabB
# Rhesus PDE2A3, sequence (B3VTJ2 1-941): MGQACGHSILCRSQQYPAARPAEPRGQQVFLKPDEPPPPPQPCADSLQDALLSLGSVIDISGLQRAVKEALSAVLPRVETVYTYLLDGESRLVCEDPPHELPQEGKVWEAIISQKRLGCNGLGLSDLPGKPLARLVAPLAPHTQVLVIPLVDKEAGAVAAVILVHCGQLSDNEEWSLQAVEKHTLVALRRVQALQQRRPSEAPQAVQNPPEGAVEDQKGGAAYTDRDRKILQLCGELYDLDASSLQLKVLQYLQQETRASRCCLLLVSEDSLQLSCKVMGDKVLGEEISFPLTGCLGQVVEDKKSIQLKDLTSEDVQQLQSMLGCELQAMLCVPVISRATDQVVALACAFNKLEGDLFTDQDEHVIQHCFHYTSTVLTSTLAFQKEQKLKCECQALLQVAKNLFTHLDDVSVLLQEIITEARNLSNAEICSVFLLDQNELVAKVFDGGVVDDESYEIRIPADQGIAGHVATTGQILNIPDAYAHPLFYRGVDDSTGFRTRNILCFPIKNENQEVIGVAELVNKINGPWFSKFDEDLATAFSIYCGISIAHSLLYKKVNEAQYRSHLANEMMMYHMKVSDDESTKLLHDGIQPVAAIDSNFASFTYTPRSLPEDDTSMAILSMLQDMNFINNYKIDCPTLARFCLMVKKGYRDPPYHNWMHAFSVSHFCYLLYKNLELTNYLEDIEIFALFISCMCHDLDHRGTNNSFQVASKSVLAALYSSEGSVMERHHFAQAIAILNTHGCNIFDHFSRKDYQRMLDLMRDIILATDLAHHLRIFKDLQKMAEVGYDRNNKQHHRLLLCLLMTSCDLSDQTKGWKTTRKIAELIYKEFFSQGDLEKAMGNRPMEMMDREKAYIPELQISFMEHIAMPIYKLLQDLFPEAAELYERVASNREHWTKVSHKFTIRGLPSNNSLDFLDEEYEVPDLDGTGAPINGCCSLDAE
SMILES,Ki (Rhesus PDE2A3; [1]) [nM],Ki (Rhesus PDE2A3; [2]) [nM],Ki (human PDE2A1; [3]) [nM],Ki (human PDE2A1; [4]) [nM]
"Cc1nc(-c2cn(C(C)c3ccc(C(F)(F)F)cc3)cn2)cc(=O)[nH]1 (single isomer, unassigned) [Example 17, (R)- or (S)-2-methyl-6-(1-(1-(4-(trifluoro-methyl)phenyl)ethyl)-1H-imidazol-4-yl) pyrimidin-4 (3H)-one]",106,–,76,–
"Cc1nc(-c2nnc([C@H](C)c3ccc(C(F)(F)F)cc3F)s2)cc(=O)[nH]1 (single isomer, unassigned) [Example 4]",–,20,–,22
"Cc1nc(-c2cc([C@@H](C)c3ccc(C(F)(F)F)cc3F)ncn2)cc(=O)[nH]1 (single isomer, unassigned) [Example 30]",–,–,–,39
"Cc1nc(-c2cc(C(C)c3ccc(C(F)(F)F)cc3)ncn2)cc(=O)[nH]1 (single isomer, unassigned) [Example 32, (R)- or (S)-2-methyl-6′-(1-(4-(trifluoromethyl)phenyl)ethyl)-[4,4′-bipyrimi-din]-6(1H)-one]",–,–,–,64
"Cc1nc(-c2ncc(C(C)c3ccc(C(F)(F)F)cc3)s2)cc(=O)[nH]1 (centres unmarked) [Example 1, 2-Methyl-6-(5-(1-(4-(trifluoromethyl)phenyl)ethyl)thiazol-2-yl)pyrimidin-4(3H)-one]",96,481,60,–
"Cc1nc(-c2cc(=O)[nH]c(C)n2)cc(C(C)c2ccc(C(F)(F)F)cc2)n1 (centres unmarked) [Example 48, 2,2′-dimethyl-6′-(1-(4-(trifluoromethyl)phenyl)ethyl)-[4,4′-bipyrimidin]-6(1H)-one]",516,–,312,–
"Cc1nc(-c2cc(C(C)c3ccc(C(F)F)c(F)c3)ncn2)cc(=O)[nH]1 (single isomer, unassigned) [Example 39, (S)- or (R)-6′-(1-(4-(difluoro-methyl)-3-fluoro-phenyl)ethyl)-2-methyl-[4,4′-bipyrimidin]-6(1H)-one]",–,–,–,174
"Cc1nc(-c2cn([C@H](C)c3ccc(C(F)(F)F)cc3F)cn2)cc(=O)[nH]1 (single isomer, unassigned) [Example 15]",24,46,21,–
"Cc1nc(-c2cc(C(C)c3ccc(OC(F)(F)F)cc3)ncn2)cc(=O)[nH]1 (single isomer, unassigned) [Example 45, (S)- or (R)-2-methyl-6′-(1-(4-(trifluoro-methoxy)phenyl)ethyl)-[4,4′-bipyrimidin]-6(1H)-one]",–,–,–,194
"Cc1nc(-c2cc(C(C)c3ccc(C(F)F)c(F)c3)ncn2)cc(=O)[nH]1 (single isomer, unassigned) [Example 38, (R)- or (S)-6′-(1-(4-(difluoro-methyl)-3-fluoro-phenyl)ethyl)-2-methyl-[4,4′-bipyrimidin]-6(1H)-one]",–,–,–,30
"Cc1nc(-c2cc(C(C)c3ccc(OC(F)(F)F)c(F)c3)ncn2)cc(=O)[nH]1 (single isomer, unassigned) [Example 41, (S)- or (R)-6′-(1-(3-fluoro-4-(trifluoro-methoxy)phenyl)ethyl)-2-methyl-[4,4′-bipyrimidin]-6(1H)-one]",–,–,–,212
"Cc1nc(-c2cc([C@H](C)c3ccc(C(C)(C)O)cc3)ncn2)cc(=O)[nH]1 (single isomer, unassigned) [Example 47]",–,–,–,1720
"Cc1nc(-c2cc([C@H](C)c3ccc(C(C)(C)O)cc3)ncn2)cc(=O)[nH]1 (single isomer, unassigned) [Example 46]",–,–,–,890

# Further lines, results first:
Ki (Rhesus PDE2A3; [1]) [nM],Ki (Rhesus PDE2A3; [2]) [nM],Ki (human PDE2A1; [3]) [nM],Ki (human PDE2A1; [4]) [nM],SMILES
10,13,6,12,"Cc1nc(-c2nnc([C@H](C)c3ccc(C(F)(F)F)cc3)s2)cc(=O)[nH]1 (single isomer, unassigned) [Example 6]"
–,–,–,13,"Cc1nc(-c2cc(C(C)c3ccc(OC(F)F)c(F)c3)ncn2)cc(=O)[nH]1 (single isomer, unassigned) [Example 34, (R)- or (S)-6′-(1-(4-(difluoro-methoxy)-3-fluorophenyl)ethyl)-2-methyl-[4,4′-bipyrimidin]-6(1H)-one]"
–,–,–,1.8,"Cc1nc(-c2cc(C(C)c3ccc(OC(F)(F)F)c(F)c3)ncn2)cc(=O)[nH]1 (single isomer, unassigned) [Example 40, (R)- or (S)-6′-(1-(3-fluoro-4-(trifluoro-methoxy)phenyl)ethyl)-2-methyl-[4,4′-bipyrimidin]-6(1H)-one]"
–,–,–,20,"Cc1nc(-c2cc(C(C)c3ccc(C(C)(F)F)cc3)ncn2)cc(=O)[nH]1 (single isomer, unassigned) [Example 36, (R)- or (S)-6′-(1-(4-(1,1-difluoro-ethyl)phenyl)ethyl)-2-methyl-[4,4′-bipyrimidin]-6(1H)-one]"
–,–,–,4.1,"Cc1nc(-c2cc(C(C)c3ccc(OC(F)(F)F)cc3)ncn2)cc(=O)[nH]1 (single isomer, unassigned) [Example 44, (R)- or (S)-2-methyl-6′-(1-(4-(trifluoro-methoxy)phenyl)ethyl)-[4,4′-bipyrimidin]-6(1H)-one]"
–,–,–,16,"Cc1nc(-c2cc([C@@H](C)c3ccc(C(F)(F)F)cc3F)ncn2)cc(=O)[nH]1 (single isomer, unassigned) [Example 31]"
